Consider one compound from patent US12516130B2, “Single-domain antibody for targeting prostate specific membrane antigen (PSMA)” (NATIONAL INSTITUTE FOR BIOTECHNOLOGY IN THE NEGEV LTD., priority 2019, dated 2026).

Assay [1] has as its system PC3-PIP cells. Briefly: Mitochondrial potential assay (TMRE). It is filed as cell-based. Conditions: 24 h, 1.5 μg/ml DOX or equivalent molar amount.
Protocol: PC3-PIP cells (2×10^4) were seeded on 96-well plates. […] After 24 h, tetramethylrhodamine ethyl ester (TMRE; Abcam, UK) was added according to the protocol provided by the manufacturer. Fluorescence intensity was measured at an excitation wavelength of 549 nm and an emission wavelength of 575 nm.
The subject of assay [2] is PC3-PIP and PC3-flu cells. Briefly: Confocal imaging of NB7cys, DOX and NB7cysDOX internalization. Conditions: 15 min, 1.5 μg/ml DOX or molar equivalent. Format: cell-based.
Assay [3] deals with PC3-PIP cells. In words: Cell viability assay (propidium iodide, FACS). It is filed as cell-based. Conditions: 24 h, 1.5 μg/ml DOX or equivalent molar amount.
Protocol: PC3-PIP cells were grown and treated as described in the cell quantification assay section, above. The cells were harvested, incubated with 0.5 μg propidium iodide (PI; Biolegend), and their fluorescence intensity was measured in a BD C6 flow cytometer.
Assay [4] deals with PC3-PIP cells. In words: Cell quantification assay. Format: cell-based. Conditions: 24 h, 1.5 μg/ml DOX or equivalent molar amount. The procedure:
PC3-PIP cells (5×10^4) were seeded in 24-well plates. […] After 24 h of treatment, the number of cells in each well was counted using the Countess II automated cell counter (Invitrogen).

For assay [5], the system named is PC3-PIP xenografts. In words: Histology of treated tumors (IF, H&E, TUNEL). As to conditions: 4 d after treatment termination.
Description: Four days following the final dose of each treatment in the in vivo tumor growth inhibition assay, the mice were euthanized, and their xenografts were fixated in 4% formaldehyde and embedded in paraffin. Tumor sections (5 μm thickness) were subjected to hematoxylin and eosin (H&E) staining, TUNEL assay, and immunofluorescence (IF), as previously described (Pittala et al., 2018, Fischer et al., 2008). […] 4′,6-diamidino-2-phenylindole (DAPI) was used for nuclei staining. […] TUNEL, PI, and IF were visualized in a confocal microscope.
In assay [6] the test system is PC3-PIP xenografts. Briefly: In vivo tumor growth inhibition. Further details: species or system athymic nude mice. As to conditions: fewer than in saline group. The procedure:
PC3-PIP xenografts were grown in athymic nude mice, as described in the in vivo optical imaging section, above. When the average tumor size reached 200 mm^3, the mice were divided into three groups (controlled for average tumor size), each subjected to a different treatment: 150 μl saline (n=7), 2 mg/kg DOX (n=8), or 1.4 mg/kg (˜40 μg) NB7cysDOX (n=8). The treatment was administered to the tail vein twice a week for three consecutive weeks. At each sample point, the tumor volume was calculated (V=0.5×L×W×H), as previously described (Tomayko and Reynolds, 1989). A mouse was euthanized when tumor volume reached 1,500 mm^3 or when its physical condition deteriorated, according to the guidelines of the Committee for the Ethical Care and Use of Animals in Research at BGU. The estimated tumor volume prior to euthanasia and the rate-based T/C were determined as described previously (Aston et al., 2017).

Structures are written as SMILES.

As for `COc1cccc2c1C(=O)c1c(O)c3c(c(O)c1C2=O)C[C@@](O)(C(=O)CO)C[C@@H]3O[C@H]1C[C@H](N)[C@H](O)[C@H](C)O1` [DOX, doxorubicin], in the assay on PC3-PIP cells [1], the “mitochondrial membrane potential (TMRE signal)” value is on record as “similarly reduced the mitochondrial membrane potential”. Further, the “cellular distribution in PC3-PIP and PC3-flu cells” value in assay [2] was “diffused spontaneously into both PC3-PIP and PC3-flu cells”. Besides, the “PI signal (late apoptosis and necrosis)” value with PC3-PIP cells [3] is given as “considerably increased the signal”. For the same compound, the “number of cells versus untreated cells” value in the assay with PC3-PIP cells [4] is “significantly reduced the number of cells in the well”. Besides, in the assay on PC3-PIP xenografts [5], the “H&E staining of tumors” value was “necrotic, fewer, and with large vacancies between cells”; the “TUNEL assay of tumors” value was “significant apoptosis”. The “mice reaching maximal tumor size, DOX versus NB7cysDOX groups” value with PC3-PIP xenografts [6] was “not significantly different from each other”.
